Entries after “also recorded” stand apart in the source; their conditions may differ.
Legend:
[1] = tested on: subject with major neurocognitive disorder of the Alzheimer type, APOE4 homozygous; assay: Compassionate use study (Expanded Access IND), clinical response and tolerability; type: in vivo, human; details: n=1
Protocol: A subject who received a diagnosis of major neurocognitive disorder of the Alzheimer type was treated with ALZ-801 as part of a compassionate use study. The subject was a APOE4 homozygous and had received standard cognitive enhancing medications and was enrolled in a trial of an amyloid immunotherapy agent, but without benefit, and had no treatment options.
The subject was orally administered ALZ-801 at a dose of 265 mg BID for approximately 14 months (61 weeks, 2 days). […] For example, their motor skills improved as they made efforts to brush their teeth, get dressed, and bathe […]. They also were able to hold a phone to their […] and was walking and eating better. They were not able or willing to do the above prior to treatment with 265 mg BID ALZ-801. Further, their mood was noticeably more cheerful and content, and their verbal communication advanced. However, by the later end of the first 12-months of treatment, the improvement in the subject's symptoms plateaued and there was a decline in their cognitive status. They became apathetic, less verbal, and could no longer follow instructions.
At 62 weeks, 6 days of treatment, the dosage of ALZ-801 was increased from 265 mg BID to 265 mg TID. Remarkably, their plateau and decline in cognition ended upon commencement of the 265 mg TID dosage regimen. They were more talkative, happier, and not only completed the tasks they accomplished while on 265 mg BID ALZ-801, but improved beyond that. They understand the context of conversation and behave in a more “normal” or “natural” manner. […] A similar plateau or decline in cognitive status as observed with an ALZ-801 dosage of 265 mg BID began to manifest approximately 12 months after the beginning of the 265 mg TID ALZ-801 dosing. The subject remained on 265 mg TID ALZ-801 for approximately three more months (15 months total) until their dosage was increased to 265 mg QID (four time a day) ALZ-801, which they have maintained for the past seven months. […] Their caretakers have noted that the patient's disposition and alertness has improved, they are more responsive, more cooperative and has improved interaction with the caretakers.

[2] = Steady-state plasma tramiprosate pharmacokinetics, expanded access subject, TID and QID; type: in vivo, human; details: BID vs TID vs QID, 265 mg per dose
Description: The steady state pharmacokinetics of the TID and QID dosing regimen in the patient has been assayed for area under the curve (AUC) and maximum concentration (Cmax) of plasma tramiprosate (the active form of ALZ-801) and compared to BID dosing values in a population of patients in a Phase 2 human clinical trial of ALZ-801. Once the patient reaches steady state on a particular dosing regimen (any time after day 7 of a particular dosing regimen), a blood sample was collected just prior to the administration of a dose of AZL-801 and then again at 1, 2 and 4 hours post-administration of that dose. Plasma was isolated from the sample by centrifugation and the plasma samples were frozen and shipped to a bioanalytical lab for determination of tramiprosate concentrations (active moiety of ALZ-801) and calculation of AUC and Cmax. The values obtained from the plasma were then used to calculate projected brain AUC.

For `CC(C)[C@H](N)C(=O)NCCCS(=O)(=O)O` [ALZ-801, valyl-3-amino-1-propanesulfonic acid], the “duration of improvement and stabilization before plateau/decline” value ([1]; oral 265 mg BID) was “about 58 weeks”, the “tolerability / side effects” value ([1]; oral 265 mg QID) was “well-tolerated with no associated nausea or noticeable side effects; also recorded: well tolerated” and the “time to plateau or decline in cognitive status after start of dosing” value ([1]; oral 265 mg TID) was “approximately 12 months”. The “tolerability / side effects” value ([1]; oral 265 mg TID) was “without out noticeable side effects; also recorded: well-tolerated” and the “dose proportionality of plasma AUC and Cmax (tramiprosate)” value [2] was “dose proportional increases in plasma AUC and Cmax”.

Reference: US20250041248A1, “ALZ-801 FOR USE IN TREATING ALZHEIMER'S DISEASE” (Alzheon, Inc., priority 2021, published 2025)
